According to patent US4029731A, “Aminophenyltetralin compounds” (Pfizer Inc., priority 1976, dated 1977):
Values joined by “and” are separate entries in the source; they are usually repeats but may differ in a detail not shown here. Identical values can stand only once. Counter-ions that a name gives are not always drawn.

Columns and labels:
[1] = system: norepinephrine (H^3 NE) uptake into the rat heart; assay: Blockade of tritium-labeled norepinephrine (H^3 NE) uptake into the rat heart in vivo; conditions: 32 μmoles/kg. (8.8 mg./kg.) i.p. 20 minutes before i.v. dl-H^3 NE, each entry a mean from a separate experiment
Method: The 1-amino-4-phenyltetralin final products of Examples IV-V and VIII-IX were tested for antidepressant activity by measuring their ability to block tritium-labeled norepinephrine (H^3 NE) uptake into the rat heart in vivo. For these particular studies, rats in groups of five were pretreated with the control vehicle or the drug to be administered at 32 μmoles/kg. (8.8 mg./kg.), via the intraperitoneal route, followed 20 minutes later by intravenous injection of dl-H^3 NE (having a specific activity of 9.5 c/mmole) at a dose level of 5 μc/kg. The rats were then sacrificed one hour ater administration of said agent (H^3 NE), and the norepinephrine (NE) content present in the heart was subsequently isolated therefrom by means of extraction with alumina, followed by repeated elution of said alumina extracts with 0.05N aqueous hydrochloric acid. The specific activity (cpm/μg.) of H^3 NE in the heart was then determined by measuring the amount of radioactivity (using a liquid scintillation counter) and the NE content (fluorimetrically via an Auto-Analyzer of the type manufactured by the Technicon Instruments Corporation of Chauncey, N.Y.) of the aforesaid aqueous eluates. The results obtained in this manner are presented below in the following table, where the individual entries are each made from a separate experiment and constitute mean relative specific activities expressed in terms of percent control: […]

[2] = system: reserpine-induced hypothermia in the mouse; assay: Reversal of reserpine-induced hypothermia in the mouse; assay type: in vivo; conditions: 32 mg./kg. i.p., 2 hours after dosing; reserpine 2 mg./kg. s.c. 18 hours before; saline control 25.1° ± 3.2° C.
Method: The 1-amino-4-phenyltetraline final products of Examples III-IX were tested for antidepressant activity by measuring their ability to reverse reserpine-induced hypothermia in the mouse according to the procedure described by B.M. Askew in Life Science, Vol. 2, p. 725 (1963). In this test, all the animals were individually housed in plastic chambers with a cardboard bottom. The mice were injected with reserpine subcutaneously at 2 mg./kg. and retained at an ambient temperature of 20° C. for a period of 18 hours. At this point, their rectal temperatures were initially ascertained and immediately thereafter they were divided into groups of 5-20 animals for testing purposes. Each group then received either saline as a control or the compound to be tested at a dose level of 32 mg./kg., administered intraperitoneally, and the resulting rectal temperatures were measured two hours later. In the table below, the entries are reported as mean rectal temperatures for each compound at the 2-hour mark, together with the number of animals tested in each particular group.

[3] = system: spontaneous motor activity in mice; assay: Spontaneous motor activity in mice (actophotometer activity counts); assay type: in vivo
Method: A total of seven mice was employed at each dose level tested (viz., at 0.32, 1.0, 3.2, 10 and 32 mg./kg., i.p., respectively) and these mice were separated one to an activity cage. After an initial one-half hour exposure period (for acclimation purposes), each animal in the cage was treated with a sample of the drug intraperitoneally and immediately thereafter returned to said cage, with activity counts every one-half hour being recorded from that point on.

[4] = system: norepinephrine uptake into both rat heart and rat brain; reserpine hypothermia in mice; assay: Antidepressant activity (norepinephrine uptake into rat heart and rat brain in vivo; reversal of reserpine hypothermia in mice); conditions: base and hydrochloride acid addition salts
Method: The activity of the compounds of the present invention as antidepressants is determined by a study of their ability to supress norepinephrine uptake into both rat heart and rat brain (in vivo), together with a determination of their ability to bring about a reversal of reserpine hypothermia in mice.

[5] = system: non-discriminated (Sidman) avoidance behavior rats; assay: Non-discriminated (Sidman) avoidance behavior in rats; assay type: in vivo; conditions: 5 mg./kg. and 10 mg./kg. i.p.
Excerpt: Eight (8) mature male rats were trained in Lehigh Valley automatic multiple-operant conditioning chambers to avoid a 2.0 mA electric shock that would last for 0.75 second, or terminate sooner if the rat lever became activated during the shock. In these tests, lever presses postponed the onset of shock for an initial period of 30 seconds, while only 10 seconds elapsed between shocks if no intervening response was elicited. The rats were run for a 40-minute control period before receiving the drug and then for approximately 2.5 hours after each treatment.

rats = assay: Antidepressant and psychomotor stimulant activity in rats, intraperitoneal; assay type: in vivo; conditions: i.p., 3.2 mg./kg. to 32 mg./kg.
Excerpt: (§1) As previously indicated, the 1-amino-4-phenyltetralin compounds of this invention (in the form of their trans-isomers) are all readily adapted to therapeutic use as psychotropic agents, particularly in view of their potent antidepressant and psychomotor stimulant properties. […] The other compounds of this invention also cause similar results. Furthermore, all the herein described trans-isomers of this invention can be administered as psychotropic agents by either the oral or parenteral routes of administration, for the present purposes at hand, without causing any significant untoward pharmacological side effects to occur in the subject to whom they are so administered. In general, these psychotropic compounds are normally administered in dosages ranging from about 0.3 mg., to about 10 mg. per kg. of body weight per day, although variations will necessarily occur depending upon the weight and conditions of the subject being treated and the particular route of administration chosen.

[6] = system: motor activity in mice; avoidance behavior in rats; assay: Psychomotor stimulant activity (motor activity in mice; Sidman avoidance in rats); assay type: in vivo; conditions: as the hydrochloride salt
Excerpt: On the other hand, the activity of the compounds of the present invention, as psychomotor stimulants, is based on a variety of tests, including (1) a study of their motor activity in mice and (2) a measurement of their ability to influence the loss of avoidance behavior in rats trained on a non-discriminated (Sidman) avoidance schedule.

[7] = Toxic / untoward side effects on administration; assay type: in vivo; conditions: rats, i.p., 3.2 mg./kg. to 32 mg./kg.
Excerpt: as §1

In the case of `CN[C@@H]1CC[C@@H](c2ccccc2)c2ccccc21` (relative stereo) [Trans-isomer of Example IV, trans-dl-N-methyl-4-phenyl-1,2,3,4-tetrahydro-1-naphthylamine hydrochloride], the “Sp. Activity of Heart H^3 NE (% Control)” value ([1]; hydrochloride) is reported as 14 % Control and 19 % Control and 21 % Control and 25 % Control, the “Mean Rectal Temperature, Temp. (° C.) ±S.D.” value (“Mean Rectal Temperature” for short) [2] is reported as 33.5 ± 1.5 °C and the “time course / duration of effect” value ([3]; 32 mg./kg. i.p.) is reported as “especially long-lived”. The “potency compared with dextrorotatory isomer” value ([3]; i.p., spontaneous motor activity) was “somewhat less potent than the aforesaid dextrorotatory isomer”.
With `CN(C)[C@@H]1CC[C@@H](c2ccccc2)c2ccccc21` (relative stereo) [Trans-isomer of Example VIII, trans-dl-N,N-dimethyl-4-phenyl-1,2,3,4-tetrahydro-1-naphthylamine hydrochloride] the “Sp. Activity of Heart H^3 NE (% Control)” value [1] was 49 % Control and the “Mean Rectal Temperature” value [2] was 33.5 ± 1.4 °C.
In the case of `N[C@@H]1CC[C@@H](c2ccccc2)c2ccccc21` (relative stereo) [trans-dl-4-phenyl-1,2,3,4-tetrahydro-1-naphthylamine], the “degree of antidepressant activity” value [4] is reported as “markedly high degree of antidepressant activity”.
In the case of `CN(C)[C@@H]1CC[C@@H](c2ccccc2)c2ccccc21` (relative stereo) [trans-dl-N,N-dimethyl-4-phenyl-1,2,3,4-tetrahydro-1-naphthylamine], the “degree of antidepressant activity” value [4] is reported as “markedly high degree of antidepressant activity”.
In the case of `c1ccc([C@@H]2CC[C@@H](NC3CC3)c3ccccc32)cc1` (relative stereo) [trans-dl-N-cyclopropyl-4-phenyl-1,2,3,4-tetrahydro-1-naphthylamine], the “degree of antidepressant activity” value [4] is reported as “markedly high degree of antidepressant activity”.
For `CCN[C@@H]1CC[C@@H](c2ccccc2)c2ccccc21` (relative stereo) [trans-dl-N-ethyl-4-phenyl-1,2,3,4-tetrahydro-1-naphthylamine], the “degree of antidepressant activity” value [4] was “markedly high degree of antidepressant activity”.
With `CC(C)N[C@@H]1CC[C@@H](c2ccccc2)c2ccccc21` (relative stereo) [trans-dl-N-isopropyl-4-phenyl-1,2,3,4-tetrahydro-1naphthylamine] the “degree of antidepressant activity” value [4] was “markedly high degree of antidepressant activity”.
With `CN[C@@H]1CC[C@@H](c2ccccc2)c2ccccc21` [Trans-d-isomer of Example III, trans-d-N-methyl-4-phenyl-1,2,3,4-tetrahydro-1-naphthylamine as the hydrochloride] the “duration of drug effect after administration” value [5] was “approximately one and a half”, the “start of drug effect” value [5] was at most 20 min and the “increase of response rates over normal pre-drug control levels” value ([5]; four out of eight rats) was 2-6 times. The response rates ([5]; four out of eight rats) was “moderate to marked increase in response rates”, the “increase of response rates over pre-drug control levels” value ([5]; two other rats) was “about 1.5 times” and the “antidepressant and psychomotor stimulant activity” value (rats) was “marked antidepressant and psychomotor stimulant activity”. For the same compound, the “duration of motor stimulant activity” value [6] was “long duration of motor stimulant activity”, the onset of action [6] was “rapid onset of action” and the “potency as psychomotor stimulant compared with methylphenidate” value [6] was “comparable in potency to methylphenidate”. The “Mean Rectal Temperature” value [2] was 34.1 ± 0.7 °C, the “duration of effect compared with d-amphetamine sulfate” value ([3]; 10 mg./kg. i.p. vs d-amphetamine sulfate at 3.2 mg./kg.) was “even more prolonged in its effect than did that of d-amphetamine sulfate” and the “effect on activity counts compared with d-amphetamine sulfate” value ([3]; 10 mg/kg. i.p. vs d-amphetamine sulfate at 3.2 mg./kg.) was “more pronounced than that of d-amphetamine sulfate”. For the same compound, the “effect on activity counts compared with methylphenidate” value ([3]; 10 mg/kg. i.p. vs methylphenidate at 10 mg./kg.) was “surpassing even that of methylphenidate”, the activity counts ([3]; 10 mg/kg.(i.p.), 30-60 minutes after treatment) was “markedly elevated the activity counts” and the “signs of toxic side effects” value [7] was “without showing any substantial signs of toxic side effects”.
